Measured values from PubChem BioAssay AID248 (DTP/NCI, 2004).
Where “and” joins values, the source holds several entries; their conditions need not be identical. Equal values may be shown once. Toxic doses and inconclusive results are not listed. No stated cut-off is given here; in the data, active means T/C of 150% or more; inactive means T/C below 125%.

Test system: L1210 leukemia ip in BDF1 mice, survival T/C
Test: NCI In Vivo Anticancer Drug Screen. Data for tumor model L1210 Leukemia (intraperitoneal) in B6D2F1 (BDF1) mice
Settings: endpoint: mean survival time, higher = longer survival
In short: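 Value reflects the ratio of survival in compound-treated mice to survival in vehicle-treated controls, with both groups carrying the same transplanted tumor.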

[1] = dose: 100.0 mg/kg/injection, schedule: Q01DX009 (ip), vehicle: Klucel (hydroxypropylcellulose) (HPC)
[2] = dose: 200.0 mg/kg/injection, schedule: Q01DX009 (ip), vehicle: Klucel (hydroxypropylcellulose) (HPC)
[3] = dose: 100.0 mg/kg/injection, schedule: Q01DX001 (ip), vehicle: carboxymethylcellulose (CMC)
[4] = dose: 100.0 mg/kg/injection, schedule: Q01DX001 (ip), vehicle: saline
[5] = dose: 200.0 mg/kg/injection, schedule: Q01DX001 (ip), vehicle: carboxymethylcellulose (CMC)
[6] = dose: 200.0 mg/kg/injection, schedule: Q01DX001 (ip), vehicle: saline
[7] = dose: 400.0 mg/kg/injection, schedule: Q01DX001 (ip), vehicle: carboxymethylcellulose (CMC)
[8] = dose: 400.0 mg/kg/injection, schedule: Q01DX001 (ip), vehicle: saline
[9] = dose: 50.0 mg/kg/injection, schedule: Q04DX002 (ip), vehicle: saline
[10] = dose: 100.0 mg/kg/injection, schedule: Q04DX002 (ip), vehicle: saline
[11] = dose: 100.0 mg/kg/injection, schedule: Q04DX003 (ip), vehicle: Klucel (hydroxypropylcellulose) (HPC)
[12] = dose: 200.0 mg/kg/injection, schedule: Q04DX003 (ip), vehicle: Klucel (hydroxypropylcellulose) (HPC)
[13] = dose: 400.0 mg/kg/injection, schedule: Q04DX003 (ip), vehicle: Klucel (hydroxypropylcellulose) (HPC)
[14] = dose: 100.0 mg/kg/injection, schedule: Q01DX009 (ip), vehicle: saline
[15] = dose: 100.0 mg/kg/injection, schedule: Q04DX003 (ip), vehicle: saline
[16] = dose: 200.0 mg/kg/injection, schedule: Q01DX009 (ip), vehicle: saline
[17] = dose: 200.0 mg/kg/injection, schedule: Q04DX003 (ip), vehicle: saline
[18] = dose: 400.0 mg/kg/injection, schedule: Q01DX009 (ip), vehicle: saline
[19] = dose: 50.0 mg/kg/injection, schedule: Q01DX009 (ip), vehicle: saline with Tween-80
[20] = dose: 100.0 mg/kg/injection, schedule: Q01DX009 (ip), vehicle: saline with Tween-80

Measured: T/C

CO[C@H]1C[C@H](O[C@H]2CC[C@]3(C=O)[C@H]4CC[C@]5(C)[C@@H](C6=CC(=O)OC6)CC[C@]5(O)[C@@H]4CC[C@]3(O)C2)O[C@H](C)[C@H]1O[C@@H]1O[C@H](CO[C@@H]2O[C@H](CO)[C@@H](O)[C@H](O)[C@H]2O)[C@@H](O)[C@H](O)[C@H]1O
inactive: dose: 0.25 mg/kg/injection, schedule: Q01DX001 (sc), vehicle: steriod suspending solution 98 % of control | dose: 0.5 mg/kg/injection, schedule: Q01DX001 (sc), vehicle: steriod suspending solution 96 % of control | dose: 1.0 mg/kg/injection, schedule: Q01DX001 (sc), vehicle: steriod suspending solution 98 % of control | dose: 2.0 mg/kg/injection, schedule: Q01DX001 (sc), vehicle: steriod suspending solution 98 % of control

COc1ccc([N+](=O)[O-])cc1NC(=O)Nc1ccc(CCO)cc1
inactive: dose: 50.0 mg/kg/injection, schedule: Q01DX009 (ip), vehicle: Klucel (hydroxypropylcellulose) (HPC) 92 % of control | [1] 105 % of control | [2] 97 % of control

Cc1cc(=O)[nH]c2c(C)cccc12
inactive: [3] 93 % of control | [4] 95 % of control | [1] 104 % of control | [5] 104 % of control | [6] 98 % of control | [2] 108 % of control | [7] 98 % of control | [8] 87 % of control | dose: 400.0 mg/kg/injection, schedule: Q01DX009 (ip), vehicle: Klucel (hydroxypropylcellulose) (HPC) 105 % of control

CC(C)N(C(=O)Nc1cccc2ccccc12)c1ccccc1
inactive: dose: 100.0 mg/kg/injection, schedule: Q01DX009 (ip), vehicle: gum acacia 97 % of control | dose: 100.0 mg/kg/injection, schedule: Q04DX003 (ip), vehicle: gum acacia 110 % of control | dose: 200.0 mg/kg/injection, schedule: Q01DX009 (ip), vehicle: gum acacia 96 % of control | dose: 200.0 mg/kg/injection, schedule: Q04DX003 (ip), vehicle: gum acacia 102 % of control | dose: 400.0 mg/kg/injection, schedule: Q01DX009 (ip), vehicle: gum acacia 99 % of control | dose: 400.0 mg/kg/injection, schedule: Q04DX003 (ip), vehicle: gum acacia 104 % of control

Cc1nc(N)sc1CCCl
inactive: dose: 36.0 mg/kg/injection, schedule: Q01DX015 (ip), vehicle: carboxymethylcellulose (CMC) 100 % of control | dose: 54.0 mg/kg/injection, schedule: Q01DX015 (ip), vehicle: carboxymethylcellulose (CMC) 94 % of control

COC(=O)C1C2CC(O)C(C2)C1C(=O)OC (configuration not stated)
inactive: dose: 12.5 mg/kg/injection, schedule: Q04DX003 (ip), vehicle: saline with Tween-80 95 % of control | dose: 25.0 mg/kg/injection, schedule: Q04DX003 (ip), vehicle: saline with Tween-80 103 % of control | dose: 50.0 mg/kg/injection, schedule: Q04DX003 (ip), vehicle: saline with Tween-80 94 % of control

O=C1CCCC(=O)CCC1
inactive: [9] 93 % of control | [10] 93 % of control | dose: 200.0 mg/kg/injection, schedule: Q04DX002 (ip), vehicle: saline 104 % of control

O=C(Nc1cccc(Cl)c1)OCCOCCOC(=O)Nc1cccc(Cl)c1
inactive: [11] 93 % of control and 104 % of control | [12] 101 % of control and 106 % of control | [13] 97 % of control and 98 % of control

O=C(Oc1ccc(Cl)cc1)c1ccc(C(=O)Oc2ccc(Cl)cc2)cc1
inactive: dose: 75.0 mg/kg/injection, schedule: Q01DX009 (ip), vehicle: saline sonified 93 % of control | [11] 100 % of control | dose: 150.0 mg/kg/injection, schedule: Q01DX009 (ip), vehicle: saline sonified 91 % of control | [12] 97 % of control | dose: 300.0 mg/kg/injection, schedule: Q01DX009 (ip), vehicle: saline sonified 87 % of control | [13] 92 % of control

NC1CCCCC1Cl (configuration not stated)
inactive: [4] 98 % of control | [6] 96 % of control | [8] 98 % of control

CCCCNS(=O)(=O)c1ccc(N)cc1
inactive: dose: 100.0 mg/kg/injection, schedule: Q01DX009 (ip), vehicle: saline sonified 102 % of control | [11] 98 % of control | dose: 200.0 mg/kg/injection, schedule: Q01DX009 (ip), vehicle: saline sonified 102 % of control | [12] 109 % of control | dose: 400.0 mg/kg/injection, schedule: Q01DX009 (ip), vehicle: saline sonified 98 % of control | [13] 117 % of control

O=C(O)/C=C\C(=O)NCCCNC(=O)/C=C\C(=O)O
inactive: [3] 101 % of control | [5] 96 % of control | [7] 93 % of control

CS(=O)(=O)O
inactive: [14] 102 % of control | [15] 108 % of control | [16] 93 % of control | [17] 98 % of control | [18] 100 % of control | dose: 400.0 mg/kg/injection, schedule: Q04DX003 (ip), vehicle: saline 109 % of control

CCOC(=O)/C=C\C(=O)O.[Mn]
inactive: dose: 25.0 mg/kg/injection, schedule: Q01DX009 (ip), vehicle: saline with Tween-80 97 % of control | dose: 25.0 mg/kg/injection, schedule: Q04DX003 (ip), vehicle: saline 108 % of control | [19] 108 % of control | dose: 50.0 mg/kg/injection, schedule: Q04DX003 (ip), vehicle: saline 106 % of control | [20] 110 % of control | [15] 103 % of control and 108 % of control | [17] 120 % of control

Cc1cc([N+](=O)[O-])cc(C)c1N
inactive: dose: 50.0 mg/kg/injection, schedule: Q01DX001 (ip), vehicle: carboxymethylcellulose (CMC) 100 % of control | [3] 102 % of control | [5] 100 % of control | [7] 110 % of control

CCCCCCCCCCCC(=O)NC(=S)Nc1cccc2ccccc12
inactive: [11] 90 % of control | [12] 97 % of control

COC(=O)c1ccc(C)nc1OC/C=C(\C)CCC=C(C)C
inactive: [4] 104 % of control | [14] 110 % of control | [6] 99 % of control | [16] 102 % of control | [8] 90 % of control | [18] 106 % of control

FC(F)(F)c1cccc(NC2=NCCS2)c1
inactive: [19] 91 % of control | [20] 98 % of control | dose: 100.0 mg/kg/injection, schedule: Q04DX002 (ip), vehicle: saline with Tween-80 97 % of control | dose: 200.0 mg/kg/injection, schedule: Q04DX002 (ip), vehicle: saline with Tween-80 115 % of control

O=C(CCCC(=O)N/N=C/c1ccccc1C(=O)O)N/N=C\c1ccccc1C(=O)O
inactive: dose: 50.0 mg/kg/injection, schedule: Q01DX001 (ip), vehicle: saline 104 % of control | [4] 102 % of control | [6] 102 % of control | [8] 98 % of control

CCCCCCCCCN1CCCC(OC(=O)N(C)C)C1 (configuration not stated)
inactive: dose: 25.0 mg/kg/injection, schedule: Q04DX002 (ip), vehicle: saline 103 % of control | [9] 103 % of control | [10] 100 % of control
